Data: patent US4250255A, “Assay method for isoenzyme activity” (Eastman Kodak Company, priority 1977, dated 1981)
Counter-ions that a name gives are not always drawn. Like-named read-outs stand apart in the source and are kept apart here.

Assays:
[1] = target: LD5 (Sus scrofa, UniProt P00339); experiment: LDH activity assay with amphiphile, LDH isoenzymes; format: biochemical, porcine; design: LD5 from two different species, i.e., rabbit muscle and hog muscle; from tissue; host or cells: hog muscle
Procedure: (§1) 3. Beef heart LDH (Sigma Chemical Co., Type III), rabbit muscle LDH (Sigma Chemical Co., Type V) and porcine LDH, LD1, LD2, LD3, LD4 and LD5 in the form of ammonium sulfate suspensions were used for these examples.
(§2) The assay for LDH activity in both the absence and presence of surfactant was conducted as follows. […] The resulting solution contains approximately 5 units/ml. […] To the equilibrated solution […]. of the enzyme solution was added, and the cuvette was rapidly shaken while covering the top of the cuvette with a small piece of Parafilm® and placed back into the spectrophotometer.
(§3) Amphiphile solutions were prepared by weighing out a given amount of amphiphile, e.g., 100 mg, and preparing a stock solution in 30 mM sodium phosphate buffer in 100 ml. volumetric flask. Solutions of lower amphiphile concentration were prepared by making the appropriate dilutions from the stock solution.

[2] = test system: isoenzymes of creatinine phosphokinase (CPK); experiment: Conventional coupled CPK assay (hexokinase, glucose-6-phosphate dehydrogenase); format: biochemical; settings: conventional assay with coupled reactions, hexokinase and glucose-6-phosphate dehydrogenase
Text: Of course, the particular amphiphile used and the concentration at which it is used will depend upon the particular isoenzyme being assayed. Not every amphiphile will have a discriminatory effect on the activity of isoenzymes in each isoenzyme system.

[3] = test system: LD5; experiment: LDH activity assay with amphiphile, LDH isoenzymes; format: biochemical, porcine; settings: even at 10 mM; LD5 from rabbit and hog show almost identical profiles; FIG. 5
Procedure: as §1, §2, §3

[4] = test system: LD1; experiment: LDH activity assay with amphiphile, LDH isoenzymes; format: biochemical, porcine; settings: about 10 mM CTAB; FIG. 5
Procedure: as §1, §2, §3

[5] = test system: LD1 and LD5; experiment: Screening of amphiphiles for ability to discriminate between LD1 and LD5; settings: for Effectiveness (LDH isoenzyme inhibition specificity, LD1 vs LD5): range of amphiphile concentrations, relative activity vs buffer
Procedure: A series of solutions was prepared covering a range of concentrations for each amphiphile to be tested. The activities of both LD1 and LD5 were determined in the presence of the various concentrations of each amphiphile and compared with enzyme activities in buffer (relative activity).
Enzyme activity in the presence and absence of amphiphile was measured by the following procedure: Stock solutions of NADH (4 mM) and pyruvate (40 mM) were prepared daily in 30 mM sodium phosphate buffer, pH 7.4. Enzyme solutions were prepared daily by withdrawing 5 μl of the stock enzyme solutions with a Hamilton syringe and diluting to 5 ml with 30 mM sodium phosphate buffer. (The resulting solution contains approximately 5 U of enzyme/ml.) The enzyme assay was run by pipetting 2.7 ml of buffer or buffer surfactant solution into a 10 mm path length quartz cuvette, and 100 μl each of NADH and pyruvate stock solutions were added. […] Enzyme solution was added with good mixing; the absorbance decrease at 340 nm was measured as a function of time. The rate of the reaction was determined by measuring the slope of the initial absorbance decrease, i.e., within the first 50 seconds of the reaction.

[6] = target: T1, mMDH (Sus scrofa, UniProt P00346); experiment: Assay for MDH (oxalacetic acid + NADH, 340 nm); format: biochemical, porcine
T1 construct: Porcine cMDH and mMDH were used as ammonium sulfate suspensions
T1 sequence (P00346 25-338): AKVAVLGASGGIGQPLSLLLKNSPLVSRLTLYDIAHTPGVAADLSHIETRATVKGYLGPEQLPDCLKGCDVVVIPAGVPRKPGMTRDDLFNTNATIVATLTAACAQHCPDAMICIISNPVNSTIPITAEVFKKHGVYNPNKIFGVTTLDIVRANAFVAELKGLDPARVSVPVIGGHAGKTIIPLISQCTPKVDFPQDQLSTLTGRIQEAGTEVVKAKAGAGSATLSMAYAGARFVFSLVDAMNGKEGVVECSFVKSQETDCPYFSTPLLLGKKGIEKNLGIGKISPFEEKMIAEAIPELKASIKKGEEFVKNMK
Procedure: (§4) 1. Porcine cMDH and mMDH were used as ammonium sulfate suspensions. Typically, 5 μl of the enzyme stock solutions were diluted to 10 ml with 30 mM phosphate buffer, pH 7.4, prior to use. The resulting enzyme solutions were stored in ice water; 100 μl aliquots were withdrawn for assay except where another amount is specified.
(§5) The assay is based on conversion of oxalacetic acid to malate in the presence of NADH and MDH. The assay was made [formula] in 30 mM phosphate buffer, at ambient temperature, with and without appropriate surfactant concentrations, and contained 0.17 mM OAA and 0.13 mM NADH. The reaction was followed by monitoring the decrease in absorbance at 340 nm using either a Beckman 25 or Cary 118 spectrophotometer. The OAA solutions were stored over ice to prevent hydrolysis to pyruvic acid.

[7] = target: T2, cMDH (Sus scrofa, UniProt P11708); experiment: Assay for MDH (oxalacetic acid + NADH, 340 nm); format: biochemical, porcine
T2 construct: Porcine cMDH and mMDH were used as ammonium sulfate suspensions
Procedure: as §4, §5

[8] = target: T3, LD1 (Sus scrofa, UniProt P00336); experiment: Effect of cationic amphiphiles on the activity of LDH isoenzymes (Table 1); format: biochemical; settings: 30 mM sodium phosphate buffer pH 7.4, 25° C.; for IC50: read-out: Amphiphile conc. Req'd for 50% Inactivation of Specified Isoenzyme (LD1)
Procedure: as §2, §3
A number of cationic amphiphiles were investigated for specific inactivation of LD1 in the presence of LD5 and these compounds are listed in Table 1.

[9] = target: T4, human LD5 (Homo sapiens, UniProt P00338); experiment: LDH assay with human enzyme-containing serum; format: biochemical
T4 construct: A specific human LDH isoenzyme (obtained from liver homogenate or red blood cell); from tissue; host or cells: human liver homogenate or red blood cell
Procedure: as §2
(§6) Pooled human serum, kept frozen until ready for use, was raised to pH 11.5 until all LDH activity was destroyed. The pH was then adjusted to 7.4 and the serum was again assayed for LDH activity to ensure that no LDH had been reactivated. A specific human LDH isoenzyme (obtained from liver homogenate or red blood cell) was then added to the pool to give an enzyme concentration of ~100 U/l. The spiked serum samples were refrigerated between uses and respiked when necessary. Fresh serum was prepared weekly.
(§7) 8. The assay method used is the same as described above for Examples 1-12, except that the test samples consisted of 25-30 μl of serum instead of 100 μl of aqueous enzyme solution.

[10] = target: T5, human LD1 (Homo sapiens, UniProt P07195); experiment: LDH assay with human enzyme-containing serum; format: biochemical; settings: 2.5 mM CTAB; pH 7.8; 14% protein
T5 construct: A specific human LDH isoenzyme (obtained from liver homogenate or red blood cell); from tissue; host or cells: human liver homogenate or red blood cell
Procedure: as §2, §6, §7

[11] = target: T6, human LD2 (Homo sapiens, UniProt P00338+P07195); experiment: LDH assay with human enzyme-containing serum; format: biochemical; settings: 2.5 mM CTAB; pH 7.8; 14% protein
T6 construct: A specific human LDH isoenzyme (obtained from liver homogenate or red blood cell); from tissue; host or cells: human liver homogenate or red blood cell
Procedure: as §2, §6, §7

[12] = test system: human LD5; experiment: LDH assay with human enzyme-containing serum; format: biochemical; settings: pH 7.4; FIG. 15
Procedure: as §2, §6, §7

[13] = target: T7, human LD4 (Homo sapiens, UniProt P00338+P07195); experiment: LDH assay with human enzyme-containing serum; format: biochemical
T7 construct: A specific human LDH isoenzyme (obtained from liver homogenate or red blood cell); from tissue; host or cells: human liver homogenate or red blood cell
Procedure: as §2, §6, §7

[14] = test system: human LD1, LD2 and LD3; experiment: LDH assay with human serum sample containing LD1, LD2 and LD3; format: biochemical; settings: CTAB 0.002-0.004 M; 25 μl serum; FIG. 13
Procedure: as §2, §6, §7

[15] = target: T8, LD4 (Sus scrofa, UniProt P00336+P00339); experiment: LDH activity assay with amphiphile, LDH isoenzymes; format: biochemical, porcine
T8 construct: porcine LDH, LD1, LD2, LD3, LD4 and LD5 in the form of ammonium sulfate suspensions
Procedure: as §1, §2, §3

[16] = target: T9, LD2 (Sus scrofa, UniProt P00336+P00339); experiment: LDH activity assay with amphiphile, LDH isoenzymes; format: biochemical, porcine
T9 construct: porcine LDH, LD1, LD2, LD3, LD4 and LD5 in the form of ammonium sulfate suspensions
Procedure: as §1, §2, §3

[17] = target: T10, LD3 (Sus scrofa, UniProt P00336+P00339); experiment: LDH activity assay with amphiphile, LDH isoenzymes; format: biochemical, porcine
T10 construct: porcine LDH, LD1, LD2, LD3, LD4 and LD5 in the form of ammonium sulfate suspensions
Procedure: as §1, §2, §3

[18] = target: T3, LD1; experiment: LDH activity assay with amphiphile, LDH isoenzymes; format: biochemical, porcine; design: porcine LDH, LD1, LD2, LD3, LD4 and LD5 in the form of ammonium sulfate suspensions
Procedure: as §1, §2, §3

[19] = target: T11, LDH isoenzymes (LD5 in the presence of LD1) (Oryctolagus cuniculus, UniProt P13491); experiment: Anionic amphiphiles tested for specific interaction with LDH isoenzymes (Table 2); format: biochemical
T11 construct: LD1 (LDHB tetramer) only as comparison
Procedure: as §2, §3
A number of anionic amphiphiles were investigated for specific inactivation of LD5 in the presence of LD1 and these compounds are listed in Table 2.

[20] = rate measurements after 2 minutes, FIG. 18
[21] = 2.5 mM CTAB, pH 7.8, 14% protein

CCCCCCCCCCCCCCCC[N+](C)(C)C.[Br-] [CTAB, hexadecyltrimethylammonium bromide]
activity at 275 µM ([1]; pH 7.4, read-out: activity of LD5 in CTAB, % of the buffer value): 90 to 95% | discriminatory effect on the activities of the isoenzymes of CPK [2]: do not appear to have any discriminatory effect | control LD5 activity lost in CTAB solutions [3]: No more than 30% | LD1 susceptibility to inactivation at high surfactant concentrations [4]: less susceptible to inactivation | discrimination of LDH isoenzymes [5]: excellent discriminators | remaining activity at 300 µM ([6]; pH 7.4, 0.3 mM CTAB, initial reaction rates, FIG. 16, read-out: mMDH activity relative to a buffer control): 100% | effect on mMDH with increased exposure time [6, 20]: no effect | cMDH activity ([7]; 0.3 mM CTAB, initial reaction rates, FIG. 16): essentially completely inactivated | cMDH inactivation with increased exposure time [7, 20]: more effectively inactivates cMDH | IC50 [8]: 0.9 mM | human LD5 activity [9, 21]: fully active | retained activity of human LD5 ([9]; CTAB 0.002-0.004 M, 25 μl serum, FIG. 13): at least 60% | activity at 3000 µM ([9]; read-out: human LD5 activity): > 100% | human LD1 activity [10]: completely inactivated | human LD2 activity [11]: completely inactivated | discrimination between human LD5 and LD4 [12]: inadequate discrimination | human LD4 activity [13, 21]: fully active | human LD4 activity ([13]; 3 mM CTAB in 14% protein, pH 7.75-7.85, 30 μl serum): completely inactivated | activity of human serum sample containing LD1, LD2 and LD3 [14]: completely inactivated

CCCCCCCCCCCCCCCCCCNC(=O)CC(C(=O)O)S(=O)(=O)O (stereo not shown) [Disodium N-octadecylsulfosuccinamate]
Effectiveness (LDH isoenzyme inhibition specificity, LD1 vs LD5) [5]: ++

CCCCCCCCCCCCN [Dodecylamine . HCl]
Effectiveness (LDH isoenzyme inhibition specificity, LD1 vs LD5) [5]: ++ | IC50 [8]: 13 mM

CCCCCCCCCCCC[N+](C)(C)C.[Br-] [Dodecyltrimethylammonium bromide]
Effectiveness (LDH isoenzyme inhibition specificity, LD1 vs LD5) [5]: - | IC50 [8]: 10 mM

CC[n+]1ccccc1.[Br-] [N-Ethylpyridinium bromide]
Amphiphile conc. Req'd for 50% Inactivation of Specified Isoenzyme (LD1) [8]: no effect

CCCCCCCCCCCCCCCC(=O)NCCC[N+](C)(C)CCO.[Cl-] [N-β-hydroxyethyl-N,N-dimethyl-N-3-palmitamidopropylammonium chloride]
retention of LD5 activity ([1]; FIG. 11): 90% | retention of LD4 activity ([15]; FIG. 11): ~ 60% | effect on LD2 activity ([16]; FIG. 11): inactivated mostly | effect on LD3 activity ([17]; FIG. 11): inactivated mostly | Effectiveness (LDH isoenzyme inhibition specificity, LD1 vs LD5) [5]: ++ | effect on LD1 activity ([18]; FIG. 11): inactivated mostly

CCCCCCCCC[N+](C)(C)C [Nonatrimethylammonium bromide]
Effectiveness (LDH isoenzyme inhibition specificity, LD1 vs LD5) [5]: - | IC50 [8]: 0.35 mM

CCCCCCCCCCCCOS(=O)(=O)[O-].[Na+] [SDS, sodium dodecylsulfate]
LD5 activity ([1]; 1.5 mM SDS, FIG. 9): nil | LD4 activity ([15]; 1.5 mM SDS, FIG. 9): nil | activity at 3500 µM ([16]; pH 7.4, read-out: LD2 activity): 0% | remaining activity at 1500 µM ([16]; pH 7.4, read-out: LD2 activity remaining): 65% | remaining activity at 1500 µM ([17]; pH 7.4, read-out: LD3 activity remaining): 50% | Effectiveness (LDH isoenzyme inhibition specificity, LD1 vs LD5) [5]: ++ | Interaction (specific inactivation of LD5 in the presence of LD1) [19]: useful positive results | Interaction (specific inactivation of LD5 in the presence of LD1) ([19]; listed as sodium dodecylsulfate): specific | remaining activity at 1500 µM ([18]; pH 7.4, read-out: LD1 activity remaining): 95% | remaining activity at 3500 µM ([18]; pH 7.4, read-out: LD1 activity, % of buffer control): 78%

CCCCCCCC/C=C\CCCCCCCC(=O)N(C)CCS(=O)(=O)O [Sodium N-methyl-N-oleoyl taurate]
Effectiveness (LDH isoenzyme inhibition specificity, LD1 vs LD5) [5]: 0

CCCCOS(=O)(=O)[O-].[Na+] [Sodium butyl sulfate]
Effectiveness (LDH isoenzyme inhibition specificity, LD1 vs LD5) [5]: 0

C[C@H](CCC(=O)O)[C@H]1CC[C@H]2[C@@H]3C(=O)C[C@@H]4CC(=O)CC[C@]4(C)[C@H]3CC(=O)[C@]12C [Sodium dehydrocholate]
Effectiveness (LDH isoenzyme inhibition specificity, LD1 vs LD5) [5]: 0
